In brackets after ≈: the same amount, converted by molar mass. Where a SMILES comes first, the peptide text is derived from it.
How the values were obtained:
[1] = tested on: Escherichia coli ATCC25922; details: Table 1; broth microdilution CLSI M100-S25, MH broth, 37°C, 18 h, three independent repeats
[2] = tested on: RAW264.7 cells; details: peptide 150 μg/mL, 24 h, WST-1, mean ± SD, three repeats
[3] = tested on: Staphylococcus aureus ATCC29213; experiment: MIC/MBC, broth microdilution; type: cell-based; details: Table 1; broth microdilution CLSI M100-S25, MH broth, 37°C, 18 h, three independent repeats
[4] = tested on: various microorganisms; experiment: MIC/MBC, summary statements over several strains; type: cell-based; details: summary of Table 1
[5] = tested on: MAC-T cells; details: peptide 150 μg/mL, 24 h, WST-1, mean ± SD, three repeats
[6] = tested on: sheep red blood cells; details: sheep red blood cells in PBS, 37°C, 1 h, OD576, relative to melittin, mean ± SD, three repeats; for Hemolytic rate, 50 μg/mL: 50 μg/mL peptide; for Hemolytic rate, 100 μg/mL: 100 μg/mL peptide; for Hemolytic rate, 150 μg/mL: 150 μg/mL peptide; for Hemolytic rate, 300 μg/mL: 300 μg/mL peptide;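 for all read-outs here: hemolysis expressed in % from supernatant absorbance, with PBS-treated cells as 0% baseline and melittin as 100%, peptide mixed 1:1 with an 8% v/v erythrocyte suspension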
[7] = tested on: methicillin-resistant S. aureus ATCC33591; experiment: Mouse skin infection model; type: in vivo; details: ampicillin 1 mg/mL, 100 μL on skin lesion; 24 h
Method: Female ICR mice (∼18 g, four weeks old) bought from Yangzhou University were used in this study. They were reared with ad libitum access to drinking water and antibiotic-free feed. The animal experiments were conducted in strict accordance with the Laboratory Animal Welfare and Animal Experimental Ethical Certificate, as issued by Committee on Animal Welfare and Experimental Ethics in Jiangsu Academy of Agricultural Sciences (approval no. JAAS20200516 and JAAS20211208).
The mouse skin infection model and bacteremia model were established to evaluate the treatment efficacy of RW-BP100-4D on local and system infections, respectively. In each model, ICR female mice were equally allocated into different treatment groups and each group contained six mice. The mouse skin infection model and bacteremia model were constructed according to previously described methods ([Natalia et al., 2019]; [Song et al., 2020]). The mice were challenged with methicillin-resistant S. aureus ATCC33591 (mecA+, MRSA) via spreading on skin lesion (5 × 10^5 CFU/mL, 0.1 mL) or intraperitoneal injection (3.0 × 10^8CFU/mL, 0.5 mL). […] S. aureus isolates were counted by using the Chromagar selective agar (Chromagar, France) supplemented with 8 μg/mL oxacillin.

[8] = tested on: S. aureus ATCC29213; experiment: Intracellular antibacterial activity in MAC-T cells; type: cell-based, Staphylococcus aureus; details: kanamycin 50 μg/mL, 2 h, infected MAC-T cells
Method: (§1) The intracellular antibacterial activity of RW-BP100-4D against S. aureus ATCC29213 and S. enterica ATCC13076 were determined as described previously ([John et al., 2019]). MAC-T cells were cultured in a 12-well plate and then infected with S. aureus ATCC29213 or S. enterica ATCC13076 (∼10^5CFU, MOI = 10) for 1 h. The spare bacteria were eliminated by treating with kanamycin (100 μg/mL) for 1 h. After that, kanamycin was removed by washing with PBS for 4 times. Then RW-BP100-4D or RW-BP100 were added to a final concentration of 50 μg/mL, respectively and incubated for 2 h. Meanwhile, kanamycin (50 μg/mL) and PBS were set as the antibiotic treatment group and treatment control group, respectively. Finally, MAC-T cells were treated with 0.1% TritonX-100. The lysates were serially diluted and spread on selective agar plates to enumerate the intracellular live bacteria. Each test was performed with three independent repeats.

[9] = tested on: S. enterica ATCC13076; experiment: as above; type: cell-based, Salmonella enterica; details: kanamycin 50 μg/mL, 2 h, infected MAC-T cells
Method: as §1

[10] = tested on: Escherichia coli and Psudomnas aeruginosa isolates; set-up: method as in Ferre et al., 2009; details: ref Ferre et al., 2009; cited from earlier work

| Molecule | MIC Escherichia coli ATCC25922 [1] | Cell survival rate, RAW264.7 [2] | MIC Staphylococcus aureus ATCC29213 [3] | MIC against S. aureus ATCC29213 and E. coli ATCC25922 (both strains together) [4] | Cell survival rate, MAC-T [5] | Hemolytic rate, 50 μg/mL [6] | Hemolytic rate, 100 μg/mL [6] | Hemolytic rate, 150 μg/mL [6] | Hemolytic rate, 300 μg/mL [6] | Bacteria load in infected mouse skin, antibiotic control [7] | Intracellular CFU versus the untreated group, S. aureus ATCC29213 [8] | Intracellular CFU versus the untreated group, S. enterica ATCC13076 [9] | MIC against Escherichia coli and Psudomnas aeruginosa isolates [10] |
| --- | --- | --- | --- | --- | --- | --- | --- | --- | --- | --- | --- | --- | --- |
| CC[C@H](C)[C@H](NC(=O)[C@H](CCCNC(=N)N)NC(=O)[C@@H](CCCNC(=N)N)NC(=O)[C@H](Cc1ccccc1)NC(=O)[C@H](CC(C)C)NC(=O)[C@H](CCCNC(=N)N)NC(=O)[C@@H](N)CCCNC(=N)N)C(=O)N[C@@H](CC(C)C)C(=O)N[C@@H](CCCNC(=N)N)C(=O)N[C@@H](Cc1c[nH]c2ccccc12)C(=O)N[C@@H](CC(C)C)C(N)=O [RW-BP100-5D] (HELM PEPTIDE1{R.R.L.F.[dR].R.I.L.R.W.L.[am]}$$$$V2.0) | 6 µg/mL (≈ 3.79 µM) | 39.05 ± 1.65% | 6 µg/mL (≈ 3.79 µM) | 3 to 12 µg/mL | 77.84 ± 5.63% | 1.26 ± 0.54% | 2.49 ± 0.72% | 29.72 ± 0.94% | 51.41 ± 4.64% |  |  |  |  |
| CC[C@H](C)[C@H](NC(=O)[C@@H](CCCNC(=N)N)NC(=O)[C@H](CCCNC(=N)N)NC(=O)[C@H](Cc1ccccc1)NC(=O)[C@H](CC(C)C)NC(=O)[C@H](CCCNC(=N)N)NC(=O)[C@@H](N)CCCNC(=N)N)C(=O)N[C@@H](CC(C)C)C(=O)N[C@@H](CCCNC(=N)N)C(=O)N[C@@H](Cc1c[nH]c2ccccc12)C(=O)N[C@@H](CC(C)C)C(N)=O [RW-BP100-6D] (HELM PEPTIDE1{R.R.L.F.R.[dR].I.L.R.W.L.[am]}$$$$V2.0) | 12 µg/mL (≈ 7.58 µM) | 5.92 ± 2.63% | 12 µg/mL (≈ 7.58 µM) | 3 to 12 µg/mL | 58.87 ± 3.45% | 2.33 ± 1.51% | 3.25 ± 0.23% | 32.57 ± 1.20% | 55.81 ± 2.87% |  |  |  |  |
| CC[C@H](C)[C@H](NC(=O)[C@H](CCCNC(=N)N)NC(=O)[C@H](CCCNC(=N)N)NC(=O)[C@H](Cc1ccccc1)NC(=O)[C@H](CC(C)C)NC(=O)[C@H](CCCNC(=N)N)NC(=O)[C@@H](N)CCCNC(=N)N)C(=O)N[C@H](CC(C)C)C(=O)N[C@@H](CCCNC(=N)N)C(=O)N[C@@H](Cc1c[nH]c2ccccc12)C(=O)N[C@@H](CC(C)C)C(N)=O [RW-BP100-8D] (HELM PEPTIDE1{R.R.L.F.R.R.I.[dL].R.W.L.[am]}$$$$V2.0) | 12 µg/mL (≈ 7.58 µM) | 20.30 ± 3.26% | 12 µg/mL (≈ 7.58 µM) | 3 to 12 µg/mL | 54.78 ± 2.65% | 0.91 ± 0.38% | 1.38 ± 0.58% | 26.19 ± 0.10% | 50.11 ± 3.17% |  |  |  |  |
| CC[C@H](C)[C@H](NC(=O)[C@H](CCCNC(=N)N)NC(=O)[C@H](CCCNC(=N)N)NC(=O)[C@H](Cc1ccccc1)NC(=O)[C@H](CC(C)C)NC(=O)[C@H](CCCNC(=N)N)NC(=O)[C@@H](N)CCCNC(=N)N)C(=O)N[C@@H](CC(C)C)C(=O)N[C@H](CCCNC(=N)N)C(=O)N[C@@H](Cc1c[nH]c2ccccc12)C(=O)N[C@@H](CC(C)C)C(N)=O [RW-BP100-9D] (HELM PEPTIDE1{R.R.L.F.R.R.I.L.[dR].W.L.[am]}$$$$V2.0) | 25 µg/mL (≈ 15.8 µM) | 91.33 ± 5.63% | 25 µg/mL (≈ 15.8 µM) |  | 92.50 ± 2.36% | 0.63 ± 0.24% | 1.53 ± 0.09% | 18.14 ± 0.20% | 45.18 ± 2.41% |  |  |  |  |
| CC[C@H](C)[C@H](NC(=O)[C@H](CCCNC(=N)N)NC(=O)[C@H](CCCNC(=N)N)NC(=O)[C@H](Cc1ccccc1)NC(=O)[C@H](CC(C)C)NC(=O)[C@H](CCCNC(=N)N)NC(=O)[C@@H](N)CCCNC(=N)N)C(=O)N[C@@H](CC(C)C)C(=O)N[C@@H](CCCNC(=N)N)C(=O)N[C@H](Cc1c[nH]c2ccccc12)C(=O)N[C@@H](CC(C)C)C(N)=O [RW-BP100-10D] (HELM PEPTIDE1{R.R.L.F.R.R.I.L.R.[dW].L.[am]}$$$$V2.0) | 50 µg/mL (≈ 31.6 µM) | 92.19 ± 6.32% | 50 µg/mL (≈ 31.6 µM) |  | 94.41 ± 4.26% | 0.31 ± 0.37% | 1.28 ± 0.19% | 19.20 ± 2.16% | 45.08 ± 4.70% |  |  |  |  |
| CC[C@H](C)[C@H](NC(=O)[C@H](CCCNC(=N)N)NC(=O)[C@H](CCCNC(=N)N)NC(=O)[C@H](Cc1ccccc1)NC(=O)[C@H](CC(C)C)NC(=O)[C@H](CCCNC(=N)N)NC(=O)[C@@H](N)CCCNC(=N)N)C(=O)N[C@@H](CC(C)C)C(=O)N[C@@H](CCCNC(=N)N)C(=O)N[C@@H](Cc1c[nH]c2ccccc12)C(=O)N[C@H](CC(C)C)C(N)=O [RW-BP100-11D] (HELM PEPTIDE1{R.R.L.F.R.R.I.L.R.W.[dL].[am]}$$$$V2.0) | >50 µg/mL | 83.27 ± 4.56% | >50 µg/mL | > 50 µg/mL | 77.81 ± 5.28% | 0.65 ± 0.60% | 1.42 ± 0.15% | 17.36 ± 1.92% | 46.97 ± 6.45% |  |  |  |  |
| CC[C@@H](C)[C@@H](NC(=O)[C@@H](CCCNC(=N)N)NC(=O)[C@@H](CCCNC(=N)N)NC(=O)[C@@H](Cc1ccccc1)NC(=O)[C@@H](CC(C)C)NC(=O)[C@@H](CCCNC(=N)N)NC(=O)[C@H](N)CCCNC(=N)N)C(=O)N[C@H](CC(C)C)C(=O)N[C@H](CCCNC(=N)N)C(=O)N[C@H](Cc1c[nH]c2ccccc12)C(=O)N[C@H](CC(C)C)C(N)=O [RW-BP100-All-D] (HELM PEPTIDE1{[dR].[dR].[dL].[dF].[dR].[dR].[dI].[dL].[dR].[dW].[dL].[am]}$$$$V2.0) | 6 µg/mL (≈ 3.79 µM) | 23.37 ± 1.58% | 6 µg/mL (≈ 3.79 µM) | 3 to 12 µg/mL | 14.23 ± 2.37% | 1.94 ± 0.94% | 2.75 ± 0.23% | 30.39 ± 2.11% | 51.40 ± 1.94% |  |  |  |  |
| CC1(C)S[C@@H]2[C@H](NC(=O)[C@H](N)c3ccccc3)C(=O)N2[C@H]1C(=O)O [ampicillin] |  |  |  |  |  |  |  |  |  | did not decrease the bacteria load |  |  |  |
| NC[C@H]1O[C@H](O[C@H]2[C@H](O)[C@@H](O[C@H]3O[C@H](CO)[C@@H](O)[C@H](N)[C@H]3O)[C@H](N)C[C@@H]2N)[C@H](O)[C@@H](O)[C@@H]1O [kanamycin] |  |  |  |  |  |  |  |  |  |  | no significant difference | no significant difference |  |
| KKLFKKILKYL-NH2 [BP100, short cationic AMP of 11 amino acids (…-NH2), hybrid of cecropin A and melittin] |  |  |  |  |  |  |  |  |  |  |  |  | 2.5 to 5 µM |

— PMC8822125, “RW-BP100-4D, a Promising Antimicrobial Candidate With Broad-Spectrum Bactericidal Activity” (Frontiers in Microbiology, 2022)
